Entries after “also recorded” stand apart in the source; their conditions may differ.
Tests used:
[1] = Plasma protein binding (equilibrium dialysis); format: in vitro ADME
Protocol: Plasma protein binding was determined by equilibrium dialysis using a Rapid Equilibrium Dialysis (RED) device (Pierce Biotechnology). Each compound was prepared in duplicate at 5 μM in plasma (0.95% acetonitrile, 0.05% DMSO) and added to one side of the membrane with PBS pH 7.4 added to the other side. Compounds were incubated at 37° C. for 5 hr with a 350 rpm orbital shake. After incubation, an aliquot was taken from each side of the membrane and quenched by adding acetontrile to a 3:1 ratio (v/v, ACN:plasma). After quenching, samples were centrifuged (32×G) to pellet precipitated particulates and an aliquot of supernatant was diluted 50/50 (v/v) with water. The resulting solution was analyzed by UPLC-MS/MS with compounds detected by MRM detection on a triple quadrupole mass spectrometer. The compound peak area on the buffer side of the membrane was compared to the peak area on the plasma side of the membrane to determine percent bound. Percent bound in plasma was calculated through the following equations: % free=[area (buffer)/area (plasma)]×100. % bound=100−% free.

[2] = tested on: Rhodopsin; assay: BRD-4780 treatment in Rho-P23H/+ mice, rhodopsin staining of retinal sections; format: in vivo, mouse; settings: 50 mg/Kg/day oral gavage, 28 days
Protocol: Rhodopsin intensity was calculated in retinal sections of Rho/+ mice treated with either vehicle or BRD-4780 (FIGS. 21A and 21B), as compared to wild-type mice treated with vehicle alone. In healthy retina, Rhodopsin primarily localized to the outer segment of the photoreceptors (OS, indicated by the arrow in FIG. 21A), instead of localizing around the photoreceptor nuclei in the outer nuclear layer (ONL, indicated by an asterisk in FIG. 21A). Since there is no Rhodopsin-P23H specific antibody, the amount of Rhodopsin staining in the outer nuclear layer was calculated as a measurement of Rhodopsin accumulation in intracellular compartments. The calculated Rhodopsin staining in the ONL was normalized to the nuclear staining, to correct for differences in cell number.
The effect of BRD-4780 on Rhodopsin accumulation in intracellular compartments of mouse retinae were tested in age-matched Rho-P23H/+ and +/+ male mice. […] Animal weight was observed daily to monitor toxicity. On day 28, mice were sacrificed, and eyes were removed for further analysis.

[3] = tested on: huntingtin (97 polyQ); assay: Huntingtin-GFP (97 polyQ) accumulation in HEK cells; format: cell-based, human; settings: 10 μM, 72 hours
Protocol: HEK293T cells were transfected with Huntingtin 97Q repeats fused to GFP and selected in 0.8 mg/mL G418 (Thermo Fisher Scientific®).
For GFP-Huntingtin experiments (FIGS. 15G and 15H), GFP signal in each cell was calculated using the “spot” identification feature, and total spot intensity for single cells was calculated and averaged for each well.
HEK293T stably expressing huntingtin 97Q-GFP were treated with 10 μM of BRD-4780 or vehicle DMSO, then monitored for GFP intensity by live cell imaging.

[4] = tested on: MUC1-fs; assay: MUC1-fs IF in MKD patient iPSC-derived kidney organoids; format: cell-based, human; settings: 10 μM, 72 hours, organoids P1-P3
Protocol: Kidney organoids were immersion-fixed for 15 min in 4% PFA at 4° C. and subsequently frozen in OCT using dry ice and 100% ethanol. Six […] cryostat sections (CM1950, Leica) were thaw-mounted on microscope slides (Fisherbrand™ Superfrost™ Plus, Fisher Scientific) and kept in the cryostat (at −26° C.) for the duration of the sectioning process. Prior to immunostaining, organoid sections were rinsed in PBS for 5 min, incubated for 20 min at room temperature (RT) in PBS blocking solution containing 5% normal donkey serum (530-100ML, EMD Millipore) and 1.5% Tween® 20 (P1379, Sigma-Aldrich), then incubated overnight at 4° C. with primary antibodies diluted in the same blocking solution (1:500, monoclonal Armenian hamster anti-MUC1, Ab80952, Abcam; 1:500, monoclonal Fab-A-VSH anti-fsMUC1, AbD22655.4, Bio-Rad; 1:300 monoclonal Rat anti-E Cadherin [DECMA-1], ab11512, Abcam; 1:500 polyclonal Rabbit anti-Laminin, L9393-100UL, Sigma-Aldrich; 1:500 Na/K-ATPase, ab76020, Abcam; 1:300 Fluorescein labeled Lotus Tetragonolobus Lectin (LTL), FL-1321, Vector laboratories; 1:100, polyclonal, Rabbit anti-TMED9, 21620-1-AP, Proteintech). […]
For a sequence analysis illustration, refer to FIG. 12B. […] MUC1-wt signal intensities were calculated within each WT reference region and averaged for entire section. […]

[5] = molecular target: T1, Nischarin (Homo sapiens, UniProt Q9Y2I1); assay: Cellular thermal shift assay (CETSA) for Nischarin in P cells; format: binding; settings: 5 μM, 1 hour
T1 construct: Densitometric analysis of Nischarin abundance after treatment of P cells with BRD-4780 (5 μM, 1 hour) or DMSO; endogenous in cells; host or cells: P cells
Protocol: CETSAs were performed as previously described (Jafari et al., 2014; Reinhard et al., 2015). In brief, P cells were treated in the presence or absence of BRD-4780 for 1 hr, harvested (trypsinized), washed in PBS, resuspended in PBS (containing protease inhibitors) and distributed in 0.2 ml PCR tubes (100 μl; 600,000 cells). Cells were incubated at their designated temperatures for 3 min, then at 25° C. for 3 min and lysed by the addition of 1% NP-40. Immediately thereafter, samples were snap frozen and thawed using thermal cycler set at 25° C. Samples were spun at 20′000×g for 20 min (4° C.) to remove precipitated protein and the supernatant was analyzed by Western blot to examine the TMED9/Nischarin thermal stability.

[6] = tested on: MUC1-fs; assay: MUC1-fs subcellular distribution (co-localization IF) in P cells; format: cell-based, human
Protocol: Cell nuclei were first identified using Hoechst staining, and cell number was calculated. Cytoplasmic regions were then detected around each nucleus based on combined channels. The cells from the edge of the field were eliminated from the analysis. For the quantification of protein abundance, the total signal intensity value for each antibody was calculated separately in the cell cytoplasm and the average signal per cell was calculated for each well. For quantitation of MUC1-fs cellular distribution and trafficking, the analysis was performed as described in FIG. 13A using the “spot” identification feature for the detection of MUC1-fs and the different organelles.
Detection of MUC1-fs in P cells at baseline and following secretory pathway perturbations was performed using immunoblot and IF analyses. […] For IF experiments (FIGS. 5B-5D and 13A-13C), P cells were plated in 384-well plates at 12,000 cells/well.

T1 sequence (Q9Y2I1 whole entry): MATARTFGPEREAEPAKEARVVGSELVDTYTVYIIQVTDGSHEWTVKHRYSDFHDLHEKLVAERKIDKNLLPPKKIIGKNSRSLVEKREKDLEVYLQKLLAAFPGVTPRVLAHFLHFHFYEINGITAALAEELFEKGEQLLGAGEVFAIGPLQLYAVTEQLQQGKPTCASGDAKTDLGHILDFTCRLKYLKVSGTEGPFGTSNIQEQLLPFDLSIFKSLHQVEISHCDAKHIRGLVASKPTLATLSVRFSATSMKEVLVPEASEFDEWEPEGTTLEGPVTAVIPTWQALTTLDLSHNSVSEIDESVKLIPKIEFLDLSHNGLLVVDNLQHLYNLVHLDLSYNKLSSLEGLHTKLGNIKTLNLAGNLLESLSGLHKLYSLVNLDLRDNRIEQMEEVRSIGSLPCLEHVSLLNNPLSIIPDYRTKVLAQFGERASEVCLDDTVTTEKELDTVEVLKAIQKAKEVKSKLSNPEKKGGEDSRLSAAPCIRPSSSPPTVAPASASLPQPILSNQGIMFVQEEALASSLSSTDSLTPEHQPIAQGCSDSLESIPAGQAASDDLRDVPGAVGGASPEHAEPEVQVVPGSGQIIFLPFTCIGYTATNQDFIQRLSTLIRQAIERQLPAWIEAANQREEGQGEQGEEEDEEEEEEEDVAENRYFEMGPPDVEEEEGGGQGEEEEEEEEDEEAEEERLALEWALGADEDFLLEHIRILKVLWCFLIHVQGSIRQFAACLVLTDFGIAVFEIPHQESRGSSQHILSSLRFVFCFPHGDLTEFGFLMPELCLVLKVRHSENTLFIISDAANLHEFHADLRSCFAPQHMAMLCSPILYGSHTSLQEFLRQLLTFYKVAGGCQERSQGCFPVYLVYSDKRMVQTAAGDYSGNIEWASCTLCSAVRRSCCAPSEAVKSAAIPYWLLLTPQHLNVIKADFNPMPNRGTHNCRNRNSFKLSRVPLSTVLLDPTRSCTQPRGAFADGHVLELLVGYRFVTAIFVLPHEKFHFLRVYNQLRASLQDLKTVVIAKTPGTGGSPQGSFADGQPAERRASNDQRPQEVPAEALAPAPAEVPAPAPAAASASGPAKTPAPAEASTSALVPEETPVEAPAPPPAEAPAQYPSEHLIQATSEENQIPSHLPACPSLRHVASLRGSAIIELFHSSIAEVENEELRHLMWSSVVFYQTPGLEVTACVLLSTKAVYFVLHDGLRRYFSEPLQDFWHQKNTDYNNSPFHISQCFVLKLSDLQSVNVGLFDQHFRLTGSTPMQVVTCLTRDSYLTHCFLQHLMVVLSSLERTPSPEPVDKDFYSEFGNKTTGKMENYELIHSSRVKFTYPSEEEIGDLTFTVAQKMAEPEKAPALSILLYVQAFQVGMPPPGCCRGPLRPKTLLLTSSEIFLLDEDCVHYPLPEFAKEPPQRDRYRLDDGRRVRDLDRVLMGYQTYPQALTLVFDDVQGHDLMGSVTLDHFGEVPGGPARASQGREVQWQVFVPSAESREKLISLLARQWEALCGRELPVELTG

## CC(C)[C@@H]1[C@H]2CC[C@H](C2)[C@H]1N (racemic) [BRD-4780, 2-endo-amino-3-exo-isopropylbicyclo[2.2.1]heptane]
[1]
  protein binding (in words): low protein binding
[1]; plasma
  estimated percent protein bound: 29.7%
[2]
  rhodopsin accumulation in intracellular compartments of retina: significantly reduced rhodopsin accumulation in intracellular compartments
[3]
  intracellular accumulation of GFP-tagged mutant huntingtin (97 polyQ): did not reverse or diminish the intracellular accumulation; also recorded: no effect on mutant huntingtin
[4]
  MUC1-fs protein in patient kidney organoids: cleared the mutant protein from intracellular compartments in all patient organoids
[5]
  Nischarin thermal stability / engagement (CETSA): no evidence indicative of direct engagement; also recorded: did not bind Nischarin
[6]
  MUC1-fs subcellular distribution: reduced in the early secretory compartment
